Like-named read-outs stand apart in the source and are kept apart here.

We go through seven compounds from PMC2654387 (Biochemistry, 2008).

Test [1] has as its target T1, EntE (Escherichia coli, UniProt P10378). The experiment in a line: biochemical. It is filed as binding.
Test [2] concerns the target T2, VibE (Vibrio cholerae serotype O1, UniProt O07899). The experiment in a line: biochemical. It is filed as binding.
In test [3] the target is T3, YbtE (Yersinia pseudotuberculosis serotype I, UniProt Q3V7P9). The conditions noted are these: read-out: Calculated Ligand-Protein Dissociation Constant KD2.
T3 sequence (Q3V7P9 1-525): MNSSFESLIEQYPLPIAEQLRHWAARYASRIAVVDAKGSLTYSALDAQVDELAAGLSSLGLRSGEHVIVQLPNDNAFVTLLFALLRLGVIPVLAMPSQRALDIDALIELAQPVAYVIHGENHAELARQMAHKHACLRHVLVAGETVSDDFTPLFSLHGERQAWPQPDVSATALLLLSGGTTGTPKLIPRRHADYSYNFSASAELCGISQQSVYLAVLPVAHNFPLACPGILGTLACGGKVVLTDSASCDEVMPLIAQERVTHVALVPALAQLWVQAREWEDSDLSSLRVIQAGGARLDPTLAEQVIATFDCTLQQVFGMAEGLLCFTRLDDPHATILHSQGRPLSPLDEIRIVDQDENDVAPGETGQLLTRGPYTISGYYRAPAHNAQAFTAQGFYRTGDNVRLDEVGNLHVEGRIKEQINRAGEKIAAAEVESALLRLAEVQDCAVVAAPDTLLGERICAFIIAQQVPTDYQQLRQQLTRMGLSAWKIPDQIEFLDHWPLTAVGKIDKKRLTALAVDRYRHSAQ
Test [4] deals with T4, MbtA (Mycobacterium tuberculosis, UniProt P71716). Kind of test: biochemical. The class given is binding.
T4 sequence (P71716 whole entry, looked up): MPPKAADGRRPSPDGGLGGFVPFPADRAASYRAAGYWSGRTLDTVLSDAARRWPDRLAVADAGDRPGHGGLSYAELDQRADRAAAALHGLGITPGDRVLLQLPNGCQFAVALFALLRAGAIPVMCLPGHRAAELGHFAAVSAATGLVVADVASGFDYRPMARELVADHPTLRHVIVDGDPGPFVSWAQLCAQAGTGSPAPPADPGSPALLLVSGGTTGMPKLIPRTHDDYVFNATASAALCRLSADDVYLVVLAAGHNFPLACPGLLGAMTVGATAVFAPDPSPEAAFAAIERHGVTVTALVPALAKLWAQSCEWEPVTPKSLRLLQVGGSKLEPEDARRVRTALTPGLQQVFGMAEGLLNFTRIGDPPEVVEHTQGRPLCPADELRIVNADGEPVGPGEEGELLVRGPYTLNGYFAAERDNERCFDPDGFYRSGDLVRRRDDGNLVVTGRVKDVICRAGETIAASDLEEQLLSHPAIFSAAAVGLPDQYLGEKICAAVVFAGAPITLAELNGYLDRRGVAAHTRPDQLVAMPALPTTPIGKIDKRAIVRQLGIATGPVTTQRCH
The target in test [5] is T5, BasE (Acinetobacter baumannii, UniProt A0A0D5YGP3). The experiment in a line: biochemical. The class given is binding.
T5 sequence (A0A0D5YGP3 1-542): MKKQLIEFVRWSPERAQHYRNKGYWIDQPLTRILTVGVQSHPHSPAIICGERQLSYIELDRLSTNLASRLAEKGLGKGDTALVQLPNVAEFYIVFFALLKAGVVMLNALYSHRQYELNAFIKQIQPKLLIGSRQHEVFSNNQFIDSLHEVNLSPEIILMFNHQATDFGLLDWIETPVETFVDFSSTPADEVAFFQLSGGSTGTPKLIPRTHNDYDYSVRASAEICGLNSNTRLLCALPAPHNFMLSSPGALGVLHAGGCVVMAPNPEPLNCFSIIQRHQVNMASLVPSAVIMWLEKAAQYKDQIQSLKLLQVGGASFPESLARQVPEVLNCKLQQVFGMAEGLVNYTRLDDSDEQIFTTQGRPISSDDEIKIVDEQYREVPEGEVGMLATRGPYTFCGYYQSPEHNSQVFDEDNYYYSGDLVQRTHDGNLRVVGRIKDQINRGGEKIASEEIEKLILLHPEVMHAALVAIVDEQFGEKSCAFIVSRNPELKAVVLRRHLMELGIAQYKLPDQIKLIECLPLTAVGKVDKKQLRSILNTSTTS
The target of test [6] is T5, BasE. The class given is biochemical.
Test [7] deals with T4, MbtA.
The target in test [8] is T1, EntE.
In test [9] the target is T4, MbtA. This is another data set of the same source.
Test [10] deals with T2, VibE.
Test [11] concerns the target T6, DhbE (Bacillus subtilis, UniProt P40871). It is filed as binding.
Test [12] has as its target T5, BasE. The class given is binding.
For test [13], the target named is T3, YbtE.
The target in test [14] is T4, MbtA. This is another data set of the same source.
For test [15], the target named is T5, BasE. The class given is binding. The source holds these as a separate data set.
A further test has as its target AsbC (Bacillus anthracis, UniProt Q81RQ7).
The target of test [16] is T1, EntE. As to conditions: cited from earlier work.
For test [17], the target named is T6, DhbE. Kind of test: biochemical. The class given is binding.
Where [18] appears, read: read-out: Calculated Ligand-Protein Dissociation Constant KD2.
Where [19] appears, read: Calculated Ligand-Protein Dissociation Constant KD2.

T1 sequence (P10378 whole entry): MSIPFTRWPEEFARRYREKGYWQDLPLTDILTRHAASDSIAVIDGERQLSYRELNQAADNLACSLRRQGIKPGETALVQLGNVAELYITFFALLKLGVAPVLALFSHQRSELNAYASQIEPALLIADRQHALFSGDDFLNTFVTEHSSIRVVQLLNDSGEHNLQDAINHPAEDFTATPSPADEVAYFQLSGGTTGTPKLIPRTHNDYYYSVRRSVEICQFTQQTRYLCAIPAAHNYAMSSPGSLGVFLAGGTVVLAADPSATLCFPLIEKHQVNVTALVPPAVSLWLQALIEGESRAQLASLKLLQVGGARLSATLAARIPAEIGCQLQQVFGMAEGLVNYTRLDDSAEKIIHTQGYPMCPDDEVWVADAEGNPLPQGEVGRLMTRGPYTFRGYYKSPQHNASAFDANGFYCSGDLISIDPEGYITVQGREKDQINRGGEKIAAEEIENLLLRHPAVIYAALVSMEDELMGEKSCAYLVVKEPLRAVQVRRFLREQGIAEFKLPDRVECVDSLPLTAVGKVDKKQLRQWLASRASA
T6 sequence (P40871 whole entry): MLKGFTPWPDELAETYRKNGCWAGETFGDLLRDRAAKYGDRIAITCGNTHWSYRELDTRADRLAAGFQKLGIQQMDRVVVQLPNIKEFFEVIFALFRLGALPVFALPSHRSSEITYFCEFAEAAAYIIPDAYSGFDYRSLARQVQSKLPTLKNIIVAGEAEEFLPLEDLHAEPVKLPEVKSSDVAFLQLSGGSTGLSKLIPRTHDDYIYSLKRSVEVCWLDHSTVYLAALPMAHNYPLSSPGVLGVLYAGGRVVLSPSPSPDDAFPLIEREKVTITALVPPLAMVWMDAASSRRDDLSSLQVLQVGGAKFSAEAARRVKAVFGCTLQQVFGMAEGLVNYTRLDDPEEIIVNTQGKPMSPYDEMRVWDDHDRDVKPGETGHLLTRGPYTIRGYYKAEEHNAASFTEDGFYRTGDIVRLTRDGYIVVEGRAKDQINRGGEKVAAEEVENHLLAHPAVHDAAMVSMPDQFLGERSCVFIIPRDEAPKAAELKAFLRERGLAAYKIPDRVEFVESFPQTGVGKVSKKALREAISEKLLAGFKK
T2 sequence (O07899 whole entry): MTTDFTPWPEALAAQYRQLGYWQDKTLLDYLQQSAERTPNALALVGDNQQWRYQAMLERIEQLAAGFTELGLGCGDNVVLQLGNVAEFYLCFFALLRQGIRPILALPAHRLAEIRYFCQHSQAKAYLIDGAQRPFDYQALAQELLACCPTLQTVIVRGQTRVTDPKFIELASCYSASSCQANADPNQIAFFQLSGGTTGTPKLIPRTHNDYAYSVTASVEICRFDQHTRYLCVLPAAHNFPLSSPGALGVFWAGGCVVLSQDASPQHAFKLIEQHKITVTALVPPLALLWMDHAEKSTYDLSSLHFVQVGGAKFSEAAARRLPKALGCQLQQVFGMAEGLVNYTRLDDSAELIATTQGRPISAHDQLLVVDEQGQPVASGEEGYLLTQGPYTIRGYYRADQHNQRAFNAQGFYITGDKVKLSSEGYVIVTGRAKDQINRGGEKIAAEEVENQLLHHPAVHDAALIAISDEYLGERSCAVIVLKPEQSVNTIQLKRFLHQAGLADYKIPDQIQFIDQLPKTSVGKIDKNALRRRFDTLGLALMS
Chain of AsbC (Q81RQ7 whole entry, looked up): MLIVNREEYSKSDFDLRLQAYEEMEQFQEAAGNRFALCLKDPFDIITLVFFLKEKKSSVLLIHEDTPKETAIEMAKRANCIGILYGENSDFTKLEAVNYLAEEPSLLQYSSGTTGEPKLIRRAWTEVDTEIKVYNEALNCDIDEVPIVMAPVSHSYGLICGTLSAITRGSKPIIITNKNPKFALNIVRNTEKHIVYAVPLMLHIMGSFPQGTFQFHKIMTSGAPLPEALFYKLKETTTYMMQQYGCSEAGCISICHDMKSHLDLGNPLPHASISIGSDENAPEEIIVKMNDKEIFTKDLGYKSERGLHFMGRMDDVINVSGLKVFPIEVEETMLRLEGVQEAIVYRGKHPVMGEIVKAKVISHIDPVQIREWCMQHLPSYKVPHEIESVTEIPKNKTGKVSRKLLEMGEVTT

Take `Nc1ncnc2c1ncn2[C@@H]1O[C@H](COP(=O)(O)O)[C@@H](O)[C@H]1O` [compound 22, adenosine monophosphate]: the Kd was 125 µM at EntE [1] (setting [18]); 12 µM at VibE [2]; 12 µM on VibE [2] (setting [18]); 260 µM on YbtE [3]; 183 µM on MbtA [4] (setting [18]); 173 µM on BasE [5] (setting [18]).

For `Nc1ncnc2c1ncn2[C@@H]1O[C@H](COS(=O)(=O)NC(=O)c2ccccc2O)[C@@H](O)[C@H]1O` [compound 4, 5′-O-[N-(salicyl)sulfamoyl]adenosine], the figures for the Kd at EntE [1] (setting [19]) and at BasE [5] (setting [19]) were 0.0336 ± 0.006 µM and 0.0167 ± 0.0031 µM, respectively.

Consider `O=C(O)c1ccc(O)c(O)c1` [3,4-dihydroxybenzoic acid], for which the “kcat (pyrophosphate exchange)” value on BasE [6] was under 0.017 s⁻¹.

The term koff denotes the first-order rate constant of dissociation. The low end stands for a long-lived complex, the high end for a short-lived complex. For the compound `CCN(CC)CC.Nc1ncnc2c1ncn2[C@@H]1O[C@H](COS(=O)(=O)NC(=O)c2ccccc2O)[C@@H](O)[C@H]1OCCOCCOCCNC(=O)c1ccc2c(c1)C(=O)OC21c2ccc(O)cc2Oc2cc(O)ccc21` [compound 6, 2′-O-{2-[2-(2-{[(Fluorescein-5-yl)carbonyl]amino}ethoxy)ethoxy]ethoxy}-5′-O-[N-(2-hydroxybenzoyl)sulfamoyl]adenosine Triethylammonium Salt], the koff on MbtA [7] worked out at 0.0085 ± 0.00033 s⁻¹. The AB at EntE [8] is reported as 0.210 ± 0.001; on VibE [10], 0.200 ± 0.002; on DhbE [11] it was 0.213 ± 0.005; on YbtE [13], 0.240 ± 0.002; at BasE [15], 0.222 ± 0.002. For the same compound, the Kd on EntE [8] amounted to 0.221 ± 0.008 µM; on VibE [10] it was 0.0855 ± 0.0056 µM; on DhbE [11], 0.369 ± 0.033 µM; on YbtE [13], 0.0576 ± 0.0034 µM. The Q at EntE [8] was 1.21; on VibE [10], 1.27; on DhbE [11] it was 0.89; at YbtE [13] it was 1.07; at MbtA [14] it was 1.07; at BasE [15], 1.02. The TΔS at MbtA [9] is 0.71 ± 0.80 kcal/mol; at BasE [12], 4.41 ± 0.18 kcal/mol. The figures for the ΔH at MbtA [9] and on BasE [12] were -9.80 ± 1.06 kcal/mol and -4.88 ± 0.17 kcal/mol, respectively. In addition, at AsbC, the “change of fluorescence anisotropy of the probe (binding to AsbC)” value is reported as “did not show a significant change”.

In general, kcat refers to the number of substrate molecules converted per active site and unit of time at saturation. As for `O=C(O)c1ccccc1` [benzoic acid], the kcat at EntE [16] was under 0.017 s⁻¹. In addition, the “kcat (pyrophosphate exchange)” value at BasE [6] is under 0.017 s⁻¹.

Turning to `O=C(O)c1cccc(O)c1O` [compound 21, 2,3-dihydroxybenzoic acid], the Kd was 3.76 µM at DhbE [17]; 8.18 µM at EntE [1] (setting [19]); 1.64 µM at VibE [2]; over 300 µM at MbtA [4]; 2.63 µM on BasE [5] (setting [19]).

The Km is the concentration of substrate that gives half-maximal velocity. Take `O=C(O)c1ccccc1O` [compound 20, salicylic acid]: the Kd on EntE [1] (setting [19]) was 211 µM; on VibE [2] it was 36.6 µM; at MbtA [4], 11.9 µM; on BasE [5] (setting [19]), 57.5 µM. At EntE [16], the Km is 91 µM. For the same compound, the kcat at EntE [16] is 2.5 s⁻¹.
